Reference: patent US9617256B2 (priority 2007, dated 2017)
Values after ≈ are worked out from the molar mass of the structure shown. Read-outs that look alike come from different tables or passages of the source.

Key:
AECO001 (ATCC25922) = assay: MIC broth microdilution, AECO001; type: cell-based, E. coli; conditions: for MIC: Escherichia coli
In short: (§1)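 Minimum inhibitory concentrations followed CLSI broth microdilution guidelines: cation-adjusted Mueller-Hinton broth, 2-fold serial drug dilutions, final inoculum 3×10^5–7×10^5 CFU/mL, ambient air at 35° C. for 18-24 hours. Quality-control strains and levofloxacin monitored performance.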

[1] = system: AECO063 (ATCC25922 bearing an acrAB mutation); assay: microbe, parasite or virus in culture; type: cell-based, E. coli; conditions: Escherichia coli, ATCC25922, read-out: MIC AECO063
In short: as §1

APAE001 (ATCC27853) = assay: MIC broth microdilution, APAE001; type: cell-based, P. aeruginosa; conditions: Pseudomonas aeruginosa, ATCC27853, read-out: MIC APAE001, APAE001 (ATCC27853)
In short: as §1

[2] = system: APAE006 (strain of P. aeruginosa in which all efflux pumps are inactivated); assay: microbe, parasite or virus in culture; type: cell-based; conditions: Pseudomonas aeruginosa, read-out: MIC APAE006, APAE006, all efflux pumps inactivated
In short: (§2)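 (ambient air) in cation-adjusted MHB; inoculum from 0.5 McFarland suspensions, final 3×10^5–7×10^5 CFU/mL; 2-fold serial drug dilutions per CLSI. APAE006: P. aeruginosa with all efflux pumps inactivated.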

[3] = system: APAE006 in the presence of 8 micrograms per milliliter of polymyxin B nonapeptide; type: cell-based, P. aeruginosa; conditions: APAE006 with 8 micrograms per milliliter polymyxin B nonapeptide
In short: as §2

[4] = system: AABA1060 (clinical isolate of Acinetobacter baumannii); assay: MIC broth microdilution, AABA1060; type: cell-based; conditions: Acinetobacter baumannii, read-out: MIC AABA1060
In short: as §1

[5] = system: ASAU001 (laboratory strain of S. aureus, ATCC29213); assay: MIC broth microdilution, ASAU001; type: cell-based; conditions: Staphylococcus aureus, ATCC29213, read-out: MIC ASAU001
In short: as §1

[6] = ATCC25922, read-out: MIC AECO001
[7] = ATCC25922, read-out: MIC AECO001 HSA AGP

SMILES | MIC (AECO001 (ATCC25922); [6]) | MIC (AECO001 (ATCC25922); [7]) | MIC [1] | MIC (APAE001 (ATCC27853)) | MIC [2] | MIC APAE006 + PMBN [3] | MIC [4] | MIC [5] | Ratio of MICs on AECO001 [Cpd (A = —CHCH3NH2)/Cpd (A = —C(CH3)2NH2)] (AECO001 (ATCC25922); MIC of paired compound with A = —CHCH3NH2 divided by MIC of compound with A = —C(CH3)2NH2, n=2 data, pairs identical except for the A moiety)
C[C@@H](N)[C@H](NC(=O)c1ccc(C#CC#CC2CCC2)cc1)C(=O)NO [Example 91-17] | < 2 µg/mL | 2 to 16 µg/mL (≈ 5.89 to 47.1 µM) | < 2 µg/mL | < 2 µg/mL | < 2 µg/mL | A (MIC's of 2.0 μg/mL or less = A) | 2 to 16 µg/mL (≈ 5.89 to 47.1 µM) | 16 to 64 µg/mL (≈ 47.1 to 189 µM) | 
C[C@@H](N)[C@H](NC(=O)c1ccc(C#CC#Cc2ccc(CN3CCS(=O)(=O)CC3)cc2)cc1)C(=O)NO [Example 86-6] | < 2 µg/mL | 2 to 16 µg/mL (≈ 3.93 to 31.5 µM) | < 2 µg/mL | 2 to 16 µg/mL (≈ 3.93 to 31.5 µM) | < 2 µg/mL | A (MIC's of 2.0 μg/mL or less = A) | 2 to 16 µg/mL (≈ 3.93 to 31.5 µM) | 16 to 64 µg/mL (≈ 31.5 to 126 µM) | 
C[C@@H](N)[C@H](NC(=O)c1ccc(C#Cc2ccc(OC3CC3)cc2)cc1)C(=O)NO [Example 125-1, N-((1S,2R)-2-Amino-1-hydroxycarbamoyl-propyl)-4-(4-cyclopropoxy-phenylethynyl)-benzamide] | < 2 µg/mL | 2 to 16 µg/mL (≈ 5.08 to 40.7 µM) | < 2 µg/mL | 2 to 16 µg/mL (≈ 5.08 to 40.7 µM) | < 2 µg/mL | A (MIC's of 2.0 μg/mL or less = A) | < 2 µg/mL | 16 to 64 µg/mL (≈ 40.7 to 163 µM) | 
CC(C)(O)[C@H](NC(=O)c1ccc(C#Cc2ccc(CNCC(F)F)cc2)cc1)C(=O)NO [Example 119-5] | < 2 µg/mL | < 2 µg/mL | < 2 µg/mL | < 2 µg/mL | < 2 µg/mL | A (MIC's of 2.0 μg/mL or less = A) | < 2 µg/mL | 16 to 64 µg/mL (≈ 35.9 to 144 µM) | 
CC(C)(O)[C@H](NC(=O)c1ccc(C#CC#Cc2ccsc2)cc1)C(=O)NO [Example 88-14] | < 2 µg/mL | 2 to 16 µg/mL (≈ 5.23 to 41.8 µM) | < 2 µg/mL | < 2 µg/mL | < 2 µg/mL | A (MIC's of 2.0 μg/mL or less = A) | < 2 µg/mL | 16 to 64 µg/mL (≈ 41.8 to 167 µM) | 
O=C(NC(C(=O)NO)C1(O)CC1)c1ccc(C#Cc2ccc(CN3CCOCC3)cc2)cc1 (stereo not shown) [Example 137-24] | < 2 µg/mL | 2 to 16 µg/mL (≈ 4.45 to 35.6 µM) | < 2 µg/mL | 2 to 16 µg/mL (≈ 4.45 to 35.6 µM) | < 2 µg/mL | A (MIC's of 2.0 μg/mL or less = A) | 2 to 16 µg/mL (≈ 4.45 to 35.6 µM) | 16 to 64 µg/mL (≈ 35.6 to 142 µM) | 
C[C@@H](N)[C@H](NC(=O)c1ccc(C#Cc2ccc(CNCC(F)(F)F)cc2)cc1)C(=O)NO [Example 137-16] | < 2 µg/mL | 2 to 16 µg/mL (≈ 4.46 to 35.7 µM) | < 2 µg/mL | 2 to 16 µg/mL (≈ 4.46 to 35.7 µM) | < 2 µg/mL | A (MIC's of 2.0 μg/mL or less = A) | 2 to 16 µg/mL (≈ 4.46 to 35.7 µM) | 16 to 64 µg/mL (≈ 35.7 to 143 µM) | 
C[C@@H](NC(=O)CNC1CC1)[C@H](NC(=O)c1ccc(C#Cc2ccccc2)cc1)C(=O)NO [Example 132-2] | < 2 µg/mL | 2 to 16 µg/mL (≈ 4.6 to 36.8 µM) | < 2 µg/mL | 2 to 16 µg/mL (≈ 4.6 to 36.8 µM) | < 2 µg/mL | A (MIC's of 2.0 μg/mL or less = A) | 16 to 64 µg/mL (≈ 36.8 to 147 µM) | 16 to 64 µg/mL (≈ 36.8 to 147 µM) | 
CC(C)(N)[C@H](NC(=O)c1ccc(/C=C/C#CC2CCCC2)cc1)C(=O)NO [Example 114-20] | < 2 µg/mL | 2 to 16 µg/mL (≈ 5.41 to 43.3 µM) | < 2 µg/mL | 2 to 16 µg/mL (≈ 5.41 to 43.3 µM) | < 2 µg/mL | A (MIC's of 2.0 μg/mL or less = A) | < 2 µg/mL | 2 to 16 µg/mL (≈ 5.41 to 43.3 µM) | 
C[C@@H](NCC(=O)NC[C@H](NC(=O)c1ccc(C#Cc2ccccc2)cc1)C(=O)NO)c1ccccc1 [Example 132-3] | < 2 µg/mL | 2 to 16 µg/mL (≈ 4.13 to 33 µM) | < 2 µg/mL | 16 to 64 µg/mL (≈ 33 to 132 µM) | < 2 µg/mL | A (MIC's of 2.0 μg/mL or less = A) | 2 to 16 µg/mL (≈ 4.13 to 33 µM) | 16 to 64 µg/mL (≈ 33 to 132 µM) | 
CC(C)(N)C(NC(=O)c1ccc(C#CC#Cc2ccc(CNC3CC3)cc2)cc1)C(=O)NO (stereo not shown) [Example 87-1, N-(2-Amino-1-hydroxycarbamoyl-2-methyl-propyl)-4-[4-(4-cyclopropylaminomethyl-phenyl)-buta-1,3-diynyl]-benzamide] | < 2 µg/mL | 2 to 16 µg/mL (≈ 4.5 to 36 µM) | < 2 µg/mL | < 2 µg/mL | < 2 µg/mL | A (MIC's of 2.0 μg/mL or less = A) | < 2 µg/mL | 16 to 64 µg/mL (≈ 36 to 144 µM) | 
C[C@@H](O)[C@H](NC(=O)c1ccc(/C=C/C#Cc2cccc(F)c2)cc1)C(=O)NO [Example 137-14] | < 2 µg/mL | 16 to 64 µg/mL (≈ 41.8 to 167 µM) | < 2 µg/mL | 2 to 16 µg/mL (≈ 5.23 to 41.8 µM) | < 2 µg/mL | A (MIC's of 2.0 μg/mL or less = A) | 2 to 16 µg/mL (≈ 5.23 to 41.8 µM) | 16 to 64 µg/mL (≈ 41.8 to 167 µM) | 
C[C@@H](N)[C@H](NC(=O)c1ccc(C#C/C=C/c2ccc(F)cc2)cc1)C(=O)NO [Example 106-6] | < 2 µg/mL | 16 to 64 µg/mL (≈ 41.9 to 168 µM) | < 2 µg/mL | 2 to 16 µg/mL (≈ 5.24 to 41.9 µM) | < 2 µg/mL | A (MIC's of 2.0 μg/mL or less = A) | 2 to 16 µg/mL (≈ 5.24 to 41.9 µM) | 16 to 64 µg/mL (≈ 41.9 to 168 µM) | 
CCC#CC#Cc1ccc(C(=O)N[C@H](C(=O)NO)C(C)(C)N)cc1 [Example 91-1, N—((S)-2-Amino-1-hydroxycarbamoyl-2-methyl-propyl)-4-hexa-1,3-diynyl-benzamide] | < 2 µg/mL | < 2 µg/mL | < 2 µg/mL | < 2 µg/mL | < 2 µg/mL | A (MIC's of 2.0 μg/mL or less = A) | < 2 µg/mL | 2 to 16 µg/mL (≈ 6.11 to 48.9 µM) | 7.2
COCCNCc1ccc(C#Cc2ccc(C(=O)N[C@H](C(=O)NO)[C@@H](C)N)cc2)cc1 [Example 122-1, N-((1S,2R)-2-Amino-1-hydroxycarbamoyl-propyl)-4-{4-[(2-methoxy-ethylamino)-methyl]-phenylethynyl}-benzamide] | 2 to 16 µg/mL (≈ 4.71 to 37.7 µM) | 2 to 16 µg/mL (≈ 4.71 to 37.7 µM) | < 2 µg/mL | 2 to 16 µg/mL (≈ 4.71 to 37.7 µM) | < 2 µg/mL | A (MIC's of 2.0 μg/mL or less = A) | 16 to 64 µg/mL (≈ 37.7 to 151 µM) | 16 to 64 µg/mL (≈ 37.7 to 151 µM) | 
